# Source: patent US7579315B2, “Casein peptides for alleviating or preventing aging of skin” (Pepsyn Ltd., priority 2000, dated 2009)
# Test system: Human keratinocytes (HatKat)
# Experiment: Growth of keratinocytes, cell count in Coulter counter after three days
# Type: cell-based
# Conditions: 10 ng/ml EGF versus medium with 0.5% FCS
# Procedure: Human keratinocytes (HatKat) were grown in keratinocyte growth medium (TCS Cellworks Ltd.) until 20% confluence. Then, in the same medium, the keratinocytes were grown for three days with 0.5% foetal calf serum (FCS), at which point the cells were counted in a Coulter® counter. The cell numbers obtained are set out in Table 3 below.
substance,measurement,value
"epidermal growth factor (NSDSECPLSHDGYCLHDGVCMYIEALDKYACNCVVGYIGERCQYRDLKWWELR; UniProt P01133 971-1023, looked up) [EGF, epidermal growth factor, comparison growth factor at 10 ng/ml]",increase in the growth of keratinocytes (in words),relatively modest increase
